Measured values as given in patent publication US10206907B2, “Compounds useful for the treatment of degenerative and inflammatory diseases” (GALAPAGOS NV, priority 2008, dated 2019).
Values belong to the compound of their own block, whether it stands above or below them.

Experiments:
[1] = system: JAK-STAT signalling in HeLa cells; test: JAK-STAT signalling assay (OSM-triggered pSTAT1(2)-luciferase reporter in HeLa cells); format: cell-based; conditions: Homo sapiens; HeLa cells, OSM-triggered pSTAT1(2)-luciferase reporter; read-out: STAT signalling EC50
Outline: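 HeLa cells transiently transfected with pSTAT1(2)-luciferase reporter plus LacZ internal control, incubated overnight at 37 °C, 10% CO2, then OSM-stimulated with compound. Luciferase read by Steadylite luminescence and normalised to β-galactosidase (ONPG); percent inhibition from controls, EC50 from dose-response.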

[2] = system: Collagen Induced Arthritis (CIA); test: Rat CIA model; format: in vivo; conditions: therapeutic dosing day 16 to day 30, p.o., statistical significance in several of the readouts
Procedure: Completed Freund's adjuvant (CFA) and incomplete Freund's adjuvant (IFA) were purchased from Difco. Bovine collagen type II (CII), lipopolysaccharide (LPS), and Enbrel were obtained from Chondrex (Isle d'Abeau, France); Sigma (P4252, L'Isle d'Abeau, France), Whyett (25 mg injectable syringe, France) Acros Organics (Palo Alto, Calif.), respectively. All other reagents used were of reagent grade and all solvents were of analytical grade.
Dark Agouti rats (male, 7-8 weeks old) were obtained from Harlan Laboratories (Maison-Alfort, France). Rats were kept on a 12 hours light/dark cycle (0700-1900). The temperature was maintained at 22° C., and food and water were provided ad libitum.
One day before the experiment, CII solution (2 mg/mL) was prepared with 0.05 M acetic acid and stored at 4° C. Just before the immunization, equal volumes of adjuvant (IFA) and CII were mixed by a homogenizer in a pre-cooled glass bottle in an ice water bath. Extra adjuvant and prolonged homogenization might be required if an emulsion is not formed. 0.2 mL of the emulsion was injected intradermally at the base of the tail of each rat on day 1, a second booster intradermal injection (CII solution at 2 mg/mL in CFA 0.1 mL saline) was performed on day 9. This immunization method was modified from published methods (Sims N A et al., (2004) Targeting osteoclasts with zoledronic acid prevents bone destruction in collagen-induced arthritis, Arthritis Rheum. 50 2338-2346; Jou et al., 2005).
The therapeutic effects of the test compounds were tested in the rat CIA model. Rats were randomly divided into equal groups and each group contained 10 rats. All rats were immunized on day 1 and boosted on day 9. Therapeutic dosing lasted from day 16 to day 30. The negative control group was treated with vehicle (MC 0.5%) and the positive control group with Enbrel (10 mg/kg, 3× week, s.c.). A compound of interest was typically tested at 3 doses, e.g. 3, 10, 30 mg/kg, p.o.
Arthritis was scored according the method of Khachigian 2006, Lin et al 2007 and Nishida et al. 2004. The swelling of each of the four paws was ranked with the arthritic score as follows: 0-no symptoms; 1-mild, but definite redness and swelling of one type of joint such as the ankle or wrist, or apparent redness and swelling limited to individual digits, regardless of the number of affected digits; 2-moderate redness and swelling of two or more types of joints; 3-severe redness and swelling of the entire paw including digits; 4-maximally inflamed limb with involvement of multiple joints (maximum cumulative clinical arthritis score 16 per animal) (Nishida et al., 2004).
Clinically, body weight loss is associated with arthritis (Shelton et al., 2005; Argiles et al., 1998; Rall, 2004; Walsmith et al., 2004). […] The change in body weight (%) after onset of arthritis was calculated as follows: […]
X-ray photos were taken of the hind paws of each individual animal. A random blind identity number was assigned to each of the photos, and the severity of bone erosion was ranked by two independent scorers with the radiological Larsen's score system as follows: 0-normal with intact bony outlines and normal joint space; 1—slight abnormality with any one or two of the exterior metatarsal bones showing slight bone erosion; 2—definite early abnormality with any three to five of the exterior metatarsal bones showing bone erosion; 3—medium destructive abnormality with all the exterior metatarsal bones as well as any one or two of the interior metatarsal bones showing definite bone erosions; 4—severe destructive abnormality with all the metatarsal bones showing definite bone erosion and at least one of the inner metatarsal joints completely eroded leaving some bony joint outlines partly preserved; 5—mutilating abnormality without bony outlines. This scoring system is a modification from Salvcmini et al., 2001; Bush et al., 2002; Sims et al., 2004; Jou et al., 2005. […]

[3] = Caco2 permeability (bi-directional); format: in vitro ADME, human; conditions: human, pH 7.4; for Papp A→B at 1 h, 10 µM: Caco-2, apical to basolateral, read-out: Papp (A2B); for efflux ratio at 1 h, 10 µM: Caco-2, ratio of PappB>A/PappA>B
Outline: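 Bidirectional transport across Caco-2 monolayers was run for 1 h at 37 °C with shaking, with 50 μM Lucifer Yellow in the donor to check monolayer integrity (acceptance ≤100 nm/s). Apical and basal compound levels were measured by LC-MS/MS, and efflux ratio was taken as PappB>A/PappA>B.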

SMILES: CC1CCCN(C(=O)c2ccc(-c3cccc4nc(NC(=O)C5CC5)nn34)cc2)C1 (centres unmarked) [Compound 145, N-(5-(4-(3-methylpiperidine-1-carbonyl)phenyl)-[1,2,4]triazolo[1,5-a]pyridin-2-yl)cyclopropanecarboxamide]
EC50 [1]: 501 to 1000 nM
efficacy in all readouts of the rat CIA study [2]: efficacious in all readouts
Papp A→B at 1 h, 10 µM [3]: 14.7 ×10⁻⁶ cm/s
efflux ratio at 1 h, 10 µM [3]: 2

SMILES: N#Cc1ccc(COc2ccc(-c3cccc4nc(NC(=O)C5CC5)nn34)cc2)cn1 [Compound 176, N-(5-(4-((6-cyanopyridin-3-yl)methoxy)phenyl)-[1,2,4]triazolo[1,5-a]pyridin-2-yl)cyclopropanecarboxamide]
EC50 [1]: 101 to 500 nM
efficacy in all readouts of the rat CIA study [2]: efficacious in all readouts
efflux ratio at 1 h, 10 µM [3]: 0.8

SMILES: O=C(Nc1nc2cccc(-c3ccc(CN4CCOCC4)cc3)n2n1)C1CC1 [Compound 18, N-(5-(4-(morpholinomethyl)phenyl)-[1,2,4]triazolo[1,5-a]pyridin-2-yl)cyclopropanecarboxamide]
EC50 [1]: > 1000 nM
efficacy in all readouts of the rat CIA study [2]: efficacious in all readouts

Second part, led by results:

EC50 [1]: 101 to 500 nM
Papp A→B at 1 h, 10 µM [3]: 6.05 ×10⁻⁶ cm/s
efflux ratio at 1 h, 10 µM [3]: 9.3
SMILES: CC1CN(C(=O)c2ccc(-c3cccc4nc(NC(=O)C5CC5)nn34)cc2)CC(C)O1 (centres unmarked) [Compound 215, Cyclopropanecarboxylic acid {5-[4-(2,6-dimethyl-morpholine-4-carbonyl)-phenyl]-[1,2,4]triazolo[1,5-a]pyridin-2-yl}-amide]
efficacy in all readouts of the rat CIA study [2]: efficacious in all readouts

EC50 [1]: 1 to 100 nM
Papp A→B at 1 h, 10 µM [3]: 6.5 ×10⁻⁶ cm/s
efflux ratio at 1 h, 10 µM [3]: 5.5
SMILES: CC1(C)CN(C(=O)c2ccc(-c3cccc4nc(NC(=O)C5CC5)nn34)cc2)C1 [Compound 330, Cyclopropanecarboxylic acid (5-[4-(3,3-dimethyl-azetidine-1-carbonyl)-phenyl]-[1,2,4]triazolo[1,5-a]pyridin-2-yl}-amide]
efficacy in all readouts of the rat CIA study [2]: efficacious in all readouts
